Test results published in patent publication US20030181498A1, “Bicyclic heteroaryl compounds as inhibitors of the interaction between the integrin alpha4beta1 receptor and vcam-1 and/or fibronectin” (AstraZeneca AB, priority 2000, published 2003).

Molecular target: T1, integrin α4β1 expressed on the MOLT-4 cell membrane with fibronectin (Homo sapiens, UniProt P05556+P13612)
T1 construct: integrin α4β1 expressed on the MOLT-4 cell membrane; host or cells: MOLT-4 human T-lymphoblastic leukaemia cells
Assay: MOLT-4 cell/fibronectin adhesion assay
Type: cell-based
Details: MOLT-4 cells, fibronectin-coated plates, 2 h at 37° C.; read-out: inhibitor at (inhibition of MOLT-4 cell adhesion to fibronectin)
Text: MOLT4 cells—human T-lymphoblastic leukaemia cells European Collection of Anil Cell Cultures, Porton Down)
Fibronectin—purified from human plasma by gelatin-sepharose affinity chromatography according to the methods described in E. Nengvall, E. Ruoslahti, Int. J. Cancer, 1977, 20, pages 1-5 and J. Forsyth et al, Methods in Enzymology, 1992, 21 pages 311-316).
1.1.1 MOLT-4 Cell/Fibronectin Adhesion Assay.
The MOLT-4 cell/fibronectin adhesion assay was used to investigate the interaction of the integrin α4β1 expressed on the MOLT-4 cell membrane with fibronectin. Polystyrene 96 well plates were coated overnight at 4° C. with fibronectin, 100 μl of 10 μg/ml in PBS. Non-specific adhesion sites were blocked by adding 100 μl BSA, 20 mg/ml. After incubating for 1 h at room temperature, the solutions were aspirated. […] Adherent cells were quantified by a colorimetric acid phosphatase assay. […] After incubation for 1 h at 37° C., 50 μl sodium hydroxide (1M) was added to each well and the absorbance 405 nm was measured on a microplate spectrophotometer. Compounds which inhibited adhesion gave a lower absorbance reading. […] Percentage inhibition was calculated with respect to total (no inhibitor) and non-specific (no fibronectin) standards on each plate. […]

T1 sequence (P13612 34-1032): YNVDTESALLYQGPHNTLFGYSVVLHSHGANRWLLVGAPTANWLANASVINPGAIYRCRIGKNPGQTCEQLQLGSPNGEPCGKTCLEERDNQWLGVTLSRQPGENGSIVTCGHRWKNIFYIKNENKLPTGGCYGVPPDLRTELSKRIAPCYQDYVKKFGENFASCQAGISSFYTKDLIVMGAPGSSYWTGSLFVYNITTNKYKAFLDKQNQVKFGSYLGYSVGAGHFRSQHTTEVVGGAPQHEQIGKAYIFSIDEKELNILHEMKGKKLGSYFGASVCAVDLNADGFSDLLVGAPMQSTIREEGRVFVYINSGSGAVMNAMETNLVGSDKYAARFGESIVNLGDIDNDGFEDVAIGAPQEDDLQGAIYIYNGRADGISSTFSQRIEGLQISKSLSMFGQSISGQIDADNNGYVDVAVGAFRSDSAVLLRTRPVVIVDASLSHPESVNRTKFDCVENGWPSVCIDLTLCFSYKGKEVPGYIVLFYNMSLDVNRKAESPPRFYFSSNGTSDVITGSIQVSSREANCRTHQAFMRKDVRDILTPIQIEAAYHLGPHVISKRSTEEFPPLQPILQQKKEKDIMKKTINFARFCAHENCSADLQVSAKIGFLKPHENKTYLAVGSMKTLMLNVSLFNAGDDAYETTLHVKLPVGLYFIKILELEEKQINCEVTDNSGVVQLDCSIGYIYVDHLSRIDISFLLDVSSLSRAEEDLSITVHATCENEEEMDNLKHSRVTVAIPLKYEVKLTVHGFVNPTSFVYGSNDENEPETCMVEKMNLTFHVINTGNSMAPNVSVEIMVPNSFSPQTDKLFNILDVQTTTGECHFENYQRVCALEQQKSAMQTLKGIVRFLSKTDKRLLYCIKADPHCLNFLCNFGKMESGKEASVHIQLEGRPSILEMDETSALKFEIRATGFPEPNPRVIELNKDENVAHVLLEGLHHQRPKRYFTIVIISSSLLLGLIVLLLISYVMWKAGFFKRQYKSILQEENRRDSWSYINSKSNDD
T1 sequence (P05556 21-798): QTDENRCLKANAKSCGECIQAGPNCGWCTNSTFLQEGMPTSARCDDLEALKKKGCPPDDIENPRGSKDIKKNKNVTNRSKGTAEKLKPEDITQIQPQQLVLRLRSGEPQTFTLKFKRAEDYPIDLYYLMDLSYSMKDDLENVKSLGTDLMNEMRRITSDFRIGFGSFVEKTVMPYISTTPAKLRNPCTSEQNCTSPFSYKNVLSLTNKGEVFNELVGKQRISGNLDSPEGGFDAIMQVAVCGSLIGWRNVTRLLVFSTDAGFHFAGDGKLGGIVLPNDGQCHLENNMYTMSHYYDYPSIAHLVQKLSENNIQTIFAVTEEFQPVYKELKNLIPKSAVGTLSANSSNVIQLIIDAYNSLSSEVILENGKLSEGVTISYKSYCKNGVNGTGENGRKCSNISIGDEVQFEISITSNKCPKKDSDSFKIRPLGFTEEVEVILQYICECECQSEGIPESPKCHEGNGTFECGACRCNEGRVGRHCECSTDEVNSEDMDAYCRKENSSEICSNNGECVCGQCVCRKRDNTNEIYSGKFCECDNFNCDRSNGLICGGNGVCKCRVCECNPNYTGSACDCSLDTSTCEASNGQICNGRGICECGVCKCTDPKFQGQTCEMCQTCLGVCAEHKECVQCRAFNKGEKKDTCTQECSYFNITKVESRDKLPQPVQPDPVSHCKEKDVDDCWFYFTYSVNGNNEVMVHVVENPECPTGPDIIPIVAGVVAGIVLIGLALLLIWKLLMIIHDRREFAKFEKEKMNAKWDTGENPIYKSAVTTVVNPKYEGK

IC50: 1.1 µM
Structure (SMILES): COc1cc(CC(=O)Nc2ccc(=O)n(CCCCC(=O)O)c2)cc2oc(Nc3ccccc3)nc12 [Compound CV]
